What was measured:
Format in all cases: functional, organism-based
Conditions in all cases: Mus musculus
P388 [1] = assay: Median survival time against P388 leukemia in CDF1 mice at a dose of 6 mg/kg administered intraperitoneally; […]; set-up: dose 6 mg/kg
P388 [2] = assay: Number of treated mice to that of control against P388 leukemia in CDF1 mice at a dose of 3 mg/kg administered intraperitoneally; active; set-up: dose 3 mg/kg
P388 [3] = assay: Number of treated mice to that of control against P388 leukemia in CDF1 mice at a dose of 6 mg/kg administered intraperitoneally; active; set-up: dose 6 mg/kg
P388 [4] = assay: Median survival time against P388 leukemia in CDF1 mice at a dose of 1.5 mg/kg administered intraperitoneally; […]; set-up: dose 1.5 mg/kg
P388 [5] = assay: Median survival time against P388 leukemia in CDF1 mice at a dose of 3 mg/kg administered intraperitoneally; […]; set-up: dose 3 mg/kg
P388 [6] = assay: Number of treated mice to that of control against P388 leukemia in CDF1 mice at a dose of 1.5 mg/kg administered intraperitoneally; active; set-up: dose 1.5 mg/kg

Question: CISPLATIN was tested. Which MST (P388 [1]) did it give?
Answer: Its MST is 24.5.

Question: What about the T/C (P388 [2]) of the same sequence?
Answer: The T/C was 188.

Question: What about the T/C (P388 [3]) of the same sequence?
Answer: The T/C was 249.

Question: And the MST (P388 [4])?
Answer: The MST was 15.5.

Question: What about the MST (P388 [5]) of the same sequence?
Answer: The MST was 18.5.

Question: And the T/C (P388 [6])?
Answer: Its T/C is 158.
